Source: patent US20160089377A1, “THERAPEUTIC TARGETING OF THE MTOR PATHWAY IN NEURODEVELOPMENTAL AND NEUROPSYCHIATRIC DISEASE” (THE TRUSTEES OF COLUMBIA UNIVERISTY IN THE CITY OF NEW YORK, priority 2013, published 2016)
Entries after “also recorded” stand apart in the source; their conditions may differ.

Assays:
[1] = tested on: dendritic spines in the frontal association cortex; test: In vivo transcranial two-photon microscopy of dendritic spine formation and elimination; parameters: species or system mice
Text: In order to assess whether we could reverse or prevent the abnormalities in spine dynamics in Caspr2 mutants, we treated Caspr2^+/−/Thy1-YFP/H, Caspr2^−/−/Thy-1-YFP/H mice, and WT littermates also positive for YFP/H from P12-P32 with either WYE125132 or with vehicle. One-month old (P30±1) male mice were used in the experiments. Spine formation and elimination were examined by imaging the mouse cortex through a thinned-skull window as described previously. Briefly, 1-mo old male mice expressing YFP were anaesthetized with ketamine and xylazine (intraperitoneal; 20 mg/ml and 3 mg/ml, respectively, in saline; 6 μl per gram of body weight). Thinned-skull windows were made in head-fixed mice with high-speed microdrills. Skull thickness was reduced to about 20 μm. A twophoton microscope tuned to 920 nm (×60 water immersion lens; numerical aperture,1.1) was used to acquire images. For re-imaging of the same region, thinned regions were identified on the basis of the maps of the brain vasculature. Microsurgical blades were used to re-thin the region of interest until a clear image could be obtained. The area of the imaging region was 200 μm×200 μm in the frontal association cortex. The centers of the imaging regions were as follows: +2.8 mm bregma, +1.0 mm midline.
(§1) WYE125132 (Chemscene) was administered by a daily p.o. gavaging in a volume of 10 ml/kg. For all behavioral experiments, dams were treated from PO to P12 after which individual pups were gavaged on a daily basis going forward. Mice also received drug treatment on the days of testing, at least 1 hour prior the experiment. For the two-photon and cell size quantitation studies, mice were gavaged from P12 to p35, after they were
One-month-old (P30±1) male mice were used in the experiments. Spine formation and elimination were examined by imaging the mouse frontal association cortex through a thinned-skull window as described previously (Lai, 2012).
To examine whether we could reverse the abnormalities in dendritic spine dynamics in the frontal association cortex, we gavaged the mice daily from P12 to P32 with WYE125132 versus vehicle.

[2] = tested on: Cntnap2 mutant mice; test: Social interaction test (10-minute interval) and grooming; type: in vivo
Protocol: Cntnap2 mutant and WT mice were obtained from heterozygous crossings and were born with the expected Mendelian frequencies. The three obtained genotypes were housed together. Mice were treated with p.o. gavaging once per day with either WYE125132 (10 mg/kg) or vehicle. All procedures involving animals were performed in accordance with the Columbia University/New York State Psychiatric Institute animal research committee.
as §1
Mice were marked with ear tagging. Experimenters were blinded to the genotype during testing. Behavioral tests were performed in the New York State Psychiatric Institute behavioral test core facility.
Detailed measurements of interaction between pairs of mice placed together in standard cages provide insights into reciprocal social interactions (Silverman et al., 2010). We examined (i) whether juvenile Cntnap2 mutant mice display decreased social interaction over a 10-minute interval and (ii) whether mutant mice have reduced tendency to approach novel social stimuli, as evidenced by social inhibition in the first minute of the tested interval (Curley et al., 2009). The first minute of this social interaction paradigm represents the phase when preference for social novelty is normally established. There were significant differences between genotypes in the amount of time spent on social investigation of the stimulus animal both in the first minute of the test (One-Way ANOVA F2,38=5.01, P<0.05; FIG. 15A) as well as over the entire 10-minute test (F2,38=3.27, P<0.05; FIG. 15A). Both Cntnap2^+/− and Cntnap2^−/− mice investigated the stimulus mouse for less time than their wild-type (WT) littermates (Dunnett post-hoc tests, all P<0.05).
Mutant mice were treated with WYE125132 or vehicle by daily gavaging.

**Q.** How did the “spine formation (in words)” value ([1]; Caspr2+/-/Thy1-YFP/H mice, P12-P32, P<0.0058) turn out when `CNC(=O)Nc1ccc(-c2nc(N3CC4CCC(C3)O4)c3cnn(C4CCC5(CC4)OCCO5)c3n2)cc1` [WYE125132] was run?
**A.** increase in spine formation

**Q.** What about the “spine elimination (in words)” value ([1]; Caspr2+/-/Thy1-YFP/H mice, P12-P32, versus vehicle, P<0.006) of the same compound?
**A.** dramatic prevention of spine elimination

**Q.** What about the “spine elimination (in words)” value ([1]; Caspr2-/-/Thy-1-YFP/H mice, P12-P32, versus vehicle, P<0.04) of the same compound?
**A.** statistically significant prevention

**Q.** And the “rate of spine elimination” value ([1]; Cntnap2+/- mice gavaged daily P12 to P32 with WYE125132)?
**A.** 8.5%±2.0%

**Q.** And the “rate of spine elimination” value ([1]; Cntnap2-/- mice gavaged daily P12 to P32 with WYE125132)?
**A.** 9.5%±1.6%

**Q.** What about the “spine elimination (in words)” value ([1]; both Cntnap2+/- and Cntnap2-/- mutant mice, P12 to P32) of the same compound?
**A.** reduced back to levels seen in the WT littermates; also recorded: rescues excessive spine elimination

**Q.** What about the “number (total frequency) of social interactions over the whole 10-minute interval” value ([2]; Cntnap2+/- mice, daily gavage, P<0.05) of the same compound?
**A.** rescued; also recorded: corrects

**Q.** What about the “social interaction deficits in the first minute of testing” value ([2]; Cntnap2+/- mice, daily gavage, versus vehicle, P<0.01) of the same compound?
**A.** reversal of the social interaction deficits; also recorded: corrects the social interaction deficits

**Q.** What about the “maximum grooming bout duration” value ([2]; Cntnap2+/- mutant mice, WYE125132 versus vehicle, P<0.05) of the same compound?
**A.** increased significantly

**Q.** And the “time spent sniffing the stimulus mouse in the very first part of the test” value ([2]; Cntnap2 mutant mice)?
**A.** increases the time

**Q.** And the “time spent sniffing the stimulus mouse in the very first part of the test” value ([2]; WT littermates)?
**A.** no such effect
